This is an account of results in patent US20020146424A1, “Polyphenolics for enhancing endothelial cell-mediated fibrinolysis” (priority 2001, published 2002).

Assay [1] concerns t-PA mRNA. As to the kind of experiment: t-PA mRNA expression in rat aortic endothelium by in situ hybridization after gavage. In kind it is in vivo, Sprague Dawley rats. The conditions noted are these: 6 hours after gavage; catechin 0.495, epicatechin 0.224, quercetin 0.033, resveratrol 0.0033 mg/kg; ethanol 1.25% v/v. The method, then: (§1) Rats used in in vivo studies were Sprague Dawley rats weighing 250 to 300 grams.
For in vivo studies, 18 male Sprague Dawley rats, 250-300 g, were intubated with Popper feeding tubes (20 gauge, 1.5 inches). The control group of three rats were gavaged with PBS in a final volume of 1 ml. Five experimental groups with three rats per groups were gavaged with 1 ml of PBS containing either individual phenolic (catechin, 0.495; epicatechin, 0.224; quercetin, 0.033; and resveratrol, 0.0033 mg/kg body weight), or ethanol 1.25% v/v, for final 0.05% blood level. These doses of phenolics and ethanol are equivalent, on a per kg basis, to the amount consumed in about 2 glasses (25 ml) of red wine by a 70 kg adult. The t-PA and u-PA mRNA expression was analyzed at 6 hours after treatment, when the rats were anesthetized with ketamine/rompin. The thoracic aorta was perfusion-fixed and paraffin embedded to evaluate the effects of ethanol and individual phenolics on the induction of t-PA and u-PA mRNA expression in vivo in the aortic endothelium using in situ hybridization using riboprobes.
To insure that the t-PA and u-PA sense and antisense riboprobes were specific for their respective mRNAs in tissue sections, the sequence-verified riboprobes were hybridized with purified rat liver RNA, rich in t-PA and u-PA mRNA.

Assay [2] has as its system cultured HUVECs. As to the kind of experiment: Surface-localized fibrinolytic activity (125I-labeled Glu-Pmg conversion to plasmin) in cultured HUVECs. In kind it is cell-based, human. The conditions noted are these: 1 hour preincubation; for surface-localized fibrinolytic activity, maximum increase: 0.001 μM, control 38.0 pmol/well; for surface-localized fibrinolytic activity, maximum increase / surface-localized fibrinolytic activity, peak: 24 hours after induction; for surface-localized fibrinolytic activity, peak: 10 μM, control 38.0±4.0; for increase in fibrinolytic activity compared to control: measured 24 hours later. The procedure: Human umbilical vein ECs (HUVECs) were obtained from fresh (discarded) umbilical cords by mild collagenase treatment (type 1, CLS) by the method of Jaffe et al (J. […] ECs were seeded into human fibronectin-coated Petri dishes (9.6 cm^2) or plastic flasks (25 cm^2) and grown to confluency. Cultures were maintained at 37° C. in a humidified 95% air, 5% CO2 atmosphere and re-fed every 48 hours with complete culture medium consisting of Medium 199 (M199) powdered medium containing L-glutamine and Earle's salt, 0.025 M HEPES buffer (pH 7.4), 0.0002 M fresh L-glutamine, 100 units/ml of penicillin, 100 μg/ml streptomycin, 10% heat-deactivated FBS, 90 μg/ml heparin and 50 μg/ml of unpurified ECGF. […] Cells were routinely counted using phase microscopy and a 0.5 mm×0.5 mm counting reticule. Individual HUVEC cultures were routinely examined for their purity and characterized as ECs by their uptake of Dil-Ac-LDL and typical monlayer “cobblestone” tight-packing morphology. Only individual cultures with 95% identifiable ECs were used in these studies. All alcohol induction studies were conducted with confluent cultured HUVECs (in 96-well plates) preincubated in the absence/presence of varying concentration of alcohol (0-0.1%, v/v) for one hour at 37° C., washed two times in DBPS, re-fed with complete 10% serum containing medium and then further incubated at 37° C. in the absence of alcohol for 24 hours. surface-localized fibrinolytic activity was measured as the conversion of ^125-labeled Glu-Pmg levels after 24 hours. All studies were conducted with confluent cultured HUVECs. The cells were preincubated in the absence/presence of varying dilutions (1:1000, 1:500, 1:250, 1:125, 1:62.5) of red wine, de-alcoholized red wine or grape juice for 1 hour at 37° C., washed two times with DPBS, re-fed with complete 10% serum-containing medium, and then further incubated at 37° C. in the absence of these compounds for 24 hours. Surface-localized fibrinolytic activity was measured as the conversion of ^125-labeled Glu-Pmg levels after 24 hours. All polyphenolic induction studies were conducted with confluent cultured HUVECs (in 96-well plates). The cells were preincubated in the absence/presence of varying concentrations (0.001-10 μM) of catechin, epicatechin, quercetin or resveratrol for 1 hour at 37° C., washed two times with DPBS, re-fed with complete 10% serum-containing medium, and then further incubated at 37° C. in the absence of these compounds for 24 hours. Surface-localized fibrinolytic activity was measured by the direct conversion of cell-bound ^125I-labeled Glu-Pmg hours after the initial induction period. […] The generation of either ^125I-labeled plasmin Mr 20-kDa light or Mr 83-kDa heavy chain formation was quantitated by phosphorimaging autoradiography after SDS-PAGE under reduced conditions. […] The cultures were then placed in a water bath at 37° C. to initiate the receptor-bound endogenous PA-mediated conversion of ^125I labeled Glu-Pmg to ^125I-labeled plasmin. Reactions were stopped after 1 and 10 minutes by the rapid addition of 40 μl of hot (56° C.) solubilizing buffer (4% sodium dodecyl sulfate (SDS), 10% glycerol and 0.2M Tris-HCl, pH 6.8). The total solubilized contents of each well containing generated ^125I-labeled plasmin were removed and reduced by the addition of 5% B-mercaptoethanol and boiling for 5 minutes. […] The radioactivity content of either the ^125I-labeled plasmin light- or heavy-chains was determined by quantitative phosphorimaging autoradiography. After electrophoresis, gels were dried and exposed in phosphorimaging cassettes for 16-18 hours. The amount of remaining ^125I-labeled Glu-Pmg and newly generated ^125I-labeled Mr 20-kDa plasmin light chain in each individual gel was quantitated by measuring the radioactivity content in each band by phosphorimaging autoradiography, using a Molecular Dynamics Series […] Phosphorimager in combination with ImageQuant software. […]

The test system of assay [3] is PAI-1 mRNA. As to the kind of experiment: PAI-1 mRNA expression in rat thoracic aorta endothelial cells by in situ hybridization after gavage. It is filed as in vivo. The conditions noted are these: 6 hours after gavage; catechin 0.495, epicatechin 0.224, quercetin 0.033, resveratrol 0.0033 mg/kg; ethanol 1.25% v/v. The procedure: as §1
In in vivo studies of rat thoracic aorta, eighteen male rats were treated by gavage as indicated above. One control group of three rats was gavaged with 1 ml of saline. Five experimental groups with three rats per group were then gavaged with 1 ml saline containing one of the following: (i) 1.25% (v/v) ethanol, (i) 0.495 mg catechin per kg body weight, (iii) 0.224 mg epicatechin per kg body weight, (iv) 0.033 mg quercetin per kg body weight, or (v) 0.0033 mg resveratrol per kg body weight.
At 3 and 6 hours following gavage, the animals were anesthetized with ketamine/rompin (10 and 1.5 mg/100 g body weight, respectively). The portal vein was cannulated and the vasculature perfused with cold, heparinized saline for 5 minutes to remove blood. […] The thoracic aorta was perfused-fixed and paraffin embedded to evaluate the short-term effects of alcohol/phenolics on PA1-I mRNA expression using in situ hybridization techniques.

Take catechin: the “t-PA mRNA chromogenic signal intensity (antisense riboprobe) in aortic tissue sections vs PBS-treated animals” value in assay [1] was “more chromogenic signal intensity”. In addition, the “surface-localized fibrinolytic activity, maximum increase” value in assay [2] was 91.5±5.0 pmol/well. Besides, the “expression of PAI-1 mRNA in endothelium of thoracic aorta” value (“expression of PAI-1 mRNA” below) in assay [3] is listed as “markedly reduced”.

As for `Oc1ccc(C=Cc2cc(O)cc(O)c2)cc1` [resveratrol], the “t-PA mRNA chromogenic signal intensity (antisense riboprobe) in aortic tissue sections vs PBS-treated animals” value in assay [1] is “more chromogenic signal intensity”. In assay [2], the “surface-localized fibrinolytic activity, peak” value came to 55.0±6.0. The “expression of PAI-1 mRNA” value in assay [3] is on record as “markedly reduced”.

In the case of `CCO` [ethanol, reference compound], the “t-PA mRNA chromogenic signal intensity (antisense riboprobe) in aortic tissue sections vs PBS-treated animals” value in assay [1] is reported as “more chromogenic signal intensity”. For the same molecule, the “increase in fibrinolytic activity compared to control” value in assay [2] (0.05% (v/v) ethanol, p=0.05) was “about 1.5 fold”; in assay [2] (0.1% (v/v) ethanol, p=0.0055), “about 3 fold”. Also, the “expression of PAI-1 mRNA” value in assay [3] is “significant decrease”.

Turning to `Oc1cc(O)c2c(c1)O[C@H](c1ccc(O)c(O)c1)[C@H](O)C2` [epicatechin], in assay [2], the “surface-localized fibrinolytic activity, maximum increase” value is recorded as 89.0±4.0 pmol/well.

As for `O=c1c(O)c(-c2ccc(O)c(O)c2)oc2cc(O)cc(O)c12` [quercetin], the “t-PA mRNA chromogenic signal intensity (antisense riboprobe) in aortic tissue sections vs PBS-treated animals” value in assay [1] is recorded as “more chromogenic signal intensity”. Further, in assay [2], the “surface-localized fibrinolytic activity, peak” value was found to be 64.0±6.0. In addition, in assay [3], the “expression of PAI-1 mRNA” value was “markedly reduced”.
